Experimental data reported in ChEMBL document CHEMBL1148063, “(+/-)-Gelliusines A and B, two diastereomeric brominated tris-indole alkaloids from a deep water new caledonian marine sponge (Gellius or Orina sp.)” (J Nat Prod, 1994).
In brackets after ≈: the same amount, converted by molar mass. Activity calls are given as the source filed them. No cut-off for these calls is given here.

Tests used:
[1] = test system: P388; test: Cytotoxicity against mouse doxorubicin-resistant P388 cells; format: functional, cell-based
[2] = test system: Ileum; test: Inhibition of serotonin-induced contraction in guinea pig ileum at 4 ug/ml; format: functional, tissue-based; details: Cavia porcellus
[3] = organism: Cavia porcellus; test: Antagonist activity at serotonin receptor in guinea pig ileum; format: functional, tissue-based
[4] = test system: KB; test: Cytotoxicity against human KB cells; format: functional, cell-based
[5] = test system: HT-29; test: Cytotoxicity against human HT-29 cells; format: functional, cell-based
[6] = Cytotoxicity against human NSCLC-N6 cells; format: functional, cell-based
[7] = test system: P388; test: Cytotoxicity against mouse P388 cells; format: functional, cell-based
[8] = test system: Ileum; test: Inhibition of acetylcholine-induced contraction in guinea pig ileum at 0.5 ug/ml; format: functional, tissue-based; details: Cavia porcellus
[9] = test system: Ileum; test: Inhibition of acetylcholine-induced contraction in guinea pig ileum at 0.2 ug/ml; format: functional, tissue-based; details: Cavia porcellus

SMILES: NCCc1c(C(CN)c2c[nH]c3cc(Br)ccc23)[nH]c2cc(C(CN)c3c[nH]c4cc(Br)ccc34)c(O)cc12 (racemic) [GELLIUSINE A]
- IC50 [1]: 10 µg/mL (≈ 15.4 µM)
- Activity [2]: Active
- Activity [3]: Active
- IC50 [4]: 10 µg/mL (≈ 15.4 µM)
- IC50 [5]: 10 µg/mL (≈ 15.4 µM)
- IC50 [6]: 10 µg/mL (≈ 15.4 µM)
- IC50 [7]: 10 µg/mL (≈ 15.4 µM)

SMILES: CC(COc1ccccc1)N(CCCl)Cc1ccccc1 (centres undefined)
- Activity [8]: inactive

SMILES: CC(C)NCC(O)COc1cccc2ccccc12 (centres undefined)
- Activity [9]: inactive
